Target: human GPR120 (Homo sapiens (Human), UniProt Q5NUL3)
Test: GPR120 pERK AlphaScreen SureFire Assay (human GPR120 pERK assay)
Type: cell-based
Conditions: CHO cells stably transfected with short form of human GPR120
How it was run: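 CHOA12 cells stably expressing short-form human GPR120, serum-starved 2 h, then stimulated 7 min at 37° C with compound (33.33 μM to 0.56 nM, 11-point). Phospho-ERK1/2 read by AlphaScreen SureFire in lysates. Activation scaled between DMSO and 50 μM linolenic acid; EC50 from a 4-parameter logistic fit.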

Chain of human GPR120 (Q5NUL3 whole entry): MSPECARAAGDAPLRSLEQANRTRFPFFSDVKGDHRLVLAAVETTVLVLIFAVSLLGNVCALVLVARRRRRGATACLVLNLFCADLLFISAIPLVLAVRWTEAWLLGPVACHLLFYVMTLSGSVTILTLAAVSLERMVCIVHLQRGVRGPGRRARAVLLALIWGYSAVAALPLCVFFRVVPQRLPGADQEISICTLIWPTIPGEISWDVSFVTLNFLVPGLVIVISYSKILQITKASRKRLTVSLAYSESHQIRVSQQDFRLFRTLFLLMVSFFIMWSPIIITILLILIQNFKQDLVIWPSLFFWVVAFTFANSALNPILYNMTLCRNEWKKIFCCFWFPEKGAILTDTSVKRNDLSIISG

Row | Compound | EC50 (μM) | EC50
1 | C=C(C)COc1cc(F)cc(-c2ccc(OC[C@@H]3C[C@H]3C(=O)O)cc2)c1 (racemic) [Example 19, Trans-2-(((3′-fluoro-5′-((2-methylallyl)oxy)-[1,1′-biphenyl]-4-yl)oxy)methyl) cyclopropanecarboxylic acid] | Not active | –
2 | O=C(O)[C@@H]1C[C@H]1CCc1ccc(-c2cccc(-n3cccn3)c2)cc1 (racemic) [Example 128, Trans-2-(2-(3′-(1H-pyrazol-1-yl)-[1,1′-biphenyl]-4-yl)ethyl) cyclopropanecarboxylic acid] | – | 700 nM
3 | Cc1nc(-c2ccccc2)c(-c2ccc(CC[C@@H]3C[C@H]3C(=O)O)cc2)s1 (single isomer, unassigned) [Example 27, Trans-2-(4-(2-methyl-4-phenylthiazol-5-yl)phenethyl)cyclopropanecarboxylic acid] | – | 1230 nM
4 | CC(C)COc1cc(F)cc(-c2ccc(OC[C@@H]3C[C@H]3C(=O)O)cc2)c1 (racemic) [Example 72, Trans-2-(((3′-fluoro-5′-isobutoxy-[1,1′-biphenyl]-4-yl)oxy)methyl) cyclopropanecarboxylic acid] | – | 1550 nM
5 | O=C(O)[C@@H]1C[C@H]1COc1ccc(-c2cc(F)cc(Oc3ccccc3)c2)cc1 (racemic) [Example 23, Trans-2-(((3′-fluoro-5′-phenoxy-[1,1′-biphenyl]-4-yl)oxy)methyl)cyclopropanecarboxylic acid] | – | 660 nM
6 | CC(C)Oc1cccc(-c2ccc(CC[C@@H]3C[C@H]3C(=O)O)cc2)c1 (racemic) [Example 131, Trans-2-(2-(3′-isopropoxy-[1,1′-biphenyl]-4-yl)ethyl) cyclopropanecarboxylic acid] | – | 920 nM
7 | CC(C)Oc1ccc(F)c(-c2ccc(CC[C@]3(F)C[C@H]3C(=O)O)cc2)c1 (racemic) [Example 39, Cis-2-fluoro-2-(2-(2′-fluoro-5′-isopropoxy-[1,1′-biphenyl]-4-yl)ethyl) cyclopropanecarboxylic acid] | – | 2020 nM
8 | CC(C)Oc1cc(Cl)cc(-c2ccc(OC[C@@H]3C[C@H]3C(=O)O)c(F)c2)c1 (single isomer, unassigned) [Example 13] | – | 640 nM
9 | COCc1cc(OC(C)C)cc(-c2ccc(OC[C@@H]3C[C@H]3C(=O)O)cc2)c1 (racemic) [Example 86, Trans-2-(((3′-isopropoxy-5′-(methoxymethyl)-[1,1′-biphenyl]-4-yl)oxy)methyl) cyclopropanecarboxylic acid] | – | 3620 nM
10 | CC(C)Oc1cc(F)c(F)c(-c2ccc(OC[C@@H]3C[C@H]3C(=O)O)cc2F)c1 (racemic) [Example 61, Trans-2-(((2,2′,3′-trifluoro-5′-isopropoxy-[1,1′-biphenyl]-4-yl)oxy)methyl)cyclopropanecarboxylic acid] | – | 2780 nM
11 | O=C(O)[C@@H]1C[C@H]1COc1ccc(-c2cc(Cl)cc(C(F)(F)F)c2)cc1 (racemic) [Example 124, Trans-2-(((3′-chloro-5′-(trifluoromethyl)-[1,1′-biphenyl]-4-yl)oxy)methyl)cyclopropanecarboxylic acid] | – | 2440 nM
12 | CC(C)Oc1cc(Cl)cc(-c2ccc(CC[C@@H]3C[C@H]3C(=O)O)cc2)c1 (relative stereo) [Example 132, Trans-2-(2-(3′-chloro-5′-isopropoxy-[1,1′-biphenyl]-4-yl)ethyl) cyclopropanecarboxylic acid] | – | 2440 nM
13 | CC(C)Oc1ccc(F)c(-c2ccc(CC[C@H]3C[C@H]3C(=O)O)cc2)c1 (racemic) [Example 15, (Cis)-(+/−)-2-(2-(2′-fluoro-5′-isopropoxy-[1,1′-biphenyl]-4-yl)ethyl) cyclopropanecarboxylic acid] | – | 1690 nM

The remaining lines, values ahead:

Row | EC50 (μM) | EC50 | Compound
14 | – | 510 nM | CC(C)Oc1ccc(Cl)c(-c2ccc(OC[C@@H]3C[C@H]3C(=O)O)cc2)c1 (racemic) [Example 119, Trans-2-(((2′-chloro-5′-isopropoxy-[1,1′-biphenyl]-4-yl)oxy)methyl) cyclopropanecarboxylic acid]
15 | – | 270 nM | O=C(O)[C@@H]1C[C@H]1COc1ccc(-c2cc(Oc3ccc(F)cc3)ccc2F)cc1 (racemic) [Example 44, Trans-2-(((2′-fluoro-5′-(4-fluorophenoxy)-[1,1′-biphenyl]-4-yl)oxy)methyl)cyclopropanecarboxylic acid]
16 | – | 60 nM | CC(C)Oc1ccc(F)c(-c2ccc(C[C@H]3C[C@@H]3CC(=O)O)cc2)c1 (racemic) [Example 33, Trans-2-(2-((2′-fluoro-5′-isopropoxy-[1,1′-biphenyl]-4-yl)methyl)cyclopropyl)acetic acid]
17 | – | 120 nM | O=C(O)[C@H]1CC1COc1ccc(-c2cc(Oc3cccc(F)c3)cnc2Cl)cc1 (stereo partly shown) [Example 113]
18 | – | 360 nM | Cc1ccc(Oc2cc(F)c(F)c(-c3ccc(OCC4CC4C(=O)O)c(F)c3)c2)cc1F (single isomer, unassigned) [Example 108]
19 | – | 310 nM | Cc1cc(-c2cc(OC(C)C)ccc2F)ccc1OC[C@@H]1C[C@H]1C(=O)O (racemic) [Example 46, Trans-2-(((2′-fluoro-5′-isopropoxy-3-methyl-[1,1′-biphenyl]-4-yl)oxy)methyl)cyclopropanecarboxylic acid]
20 | – | 300 nM | O=C(O)[C@@H]1C[C@H]1COc1ccc(-c2cc(Oc3ccc(Cl)cc3)ccc2F)cc1 (racemic) [Example 92, Trans-2-(((5′-(4-Chlorophenoxy)-2′-fluoro-[1,1′-biphenyl]-4-yl)oxy)methyl) cyclopropanecarboxylic acid]
21 | – | 180 nM | CC(C)Oc1ccc(F)c(-c2ccc(OC[C@@H]3C[C@H]3C(=O)O)c(F)c2)c1 (single isomer, unassigned) [Example 63]
22 | – | 210 nM | CC(C)Oc1ccc(Cl)c(-c2ccc(OC[C@@H]3C[C@H]3C(=O)O)c(F)c2)c1 (racemic) [Example 18, Trans-2-(((2′-chloro-3-fluoro-5′-isopropoxy-[1,1′-biphenyl]-4yl)oxy)methyl) cyclopropanecarboxylic acid]
23 | – | 320 nM | CC(C)Oc1cc(F)c(F)c(-c2ccc(OC[C@@H]3C[C@H]3C(=O)O)c(F)c2)c1 (single isomer, unassigned) [Example 66]
24 | – | 180 nM | O=C(O)[C@@H]1C[C@H]1COc1ccc(-c2cc(Oc3cccc(F)c3)ccc2F)cc1 (racemic) [Example 42, Trans-2-(((2′-fluoro-5′-(3-fluorophenoxy)-[1,1′-biphenyl]-4-yl)oxy)methyl)cyclopropanecarboxylic acid]
25 | – | 330 nM | CC(C)Oc1cc(F)c(F)c(-c2ccc(OC[C@@H]3C[C@H]3C(=O)O)c(F)c2)c1 (racemic) [Example 65, Trans-2-(((2′,3,3′-trifluoro-5′-isopropoxy-[1,1′-biphenyl]-4-yl)oxy)methyl)cyclopropanecarboxylic acid]
26 | – | 270 nM | O=C(O)[C@@H]1C[C@H]1COc1ccc(-c2cc(Oc3cccc(F)c3)cc(F)c2F)cc1F (single isomer, unassigned) [Example 106]
27 | – | 200 nM | O=C(O)[C@H]1CC1COc1ccc(-c2cc(Oc3cccc(F)c3)ccc2F)cc1F (stereo partly shown) [Example 98]
28 | – | 330 nM | O=C(O)C1CC1COc1ccc(-c2cc(OC(F)(F)F)ccc2F)cc1 (single isomer, unassigned) [Example 53, Trans-2-(((2′-fluoro-5′-(trifluoromethoxy)-[1,1′-biphenyl]-4-yl)oxy)methyl)cyclopropanecarboxylic acid]
